48 compounds from patent publication US9422240B2, “Partially saturated nitrogen-containing heterocyclic compound” (TAISHO PHARMACEUTICAL CO., LTD, priority 2012, dated 2016) can be followed below.

For assay [1], the target named is T1, human PHD2 (Homo sapiens (Human), UniProt Q9GZT9). As to the kind of experiment: Test 1: human PHD2 inhibitory activity, [14C]-2-oxoglutarate to [14C]-succinic acid radiometric assay with HIF-1α peptide. It is filed as biochemical. The settings on record: test compound's concentration 1 μM; Test 1, [14C]-2-oxoglutarate radiometric assay; read-out: Percent inhibition (% at 1 μM). The method in brief: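 Lysate from HighFive insect cells expressing human PHD2 (4 μg/well) was incubated for 15 min at 37° C with a 19-residue HIF-1α peptide and [14C]-2-oxoglutarate. Unreacted 2-oxoglutarate was precipitated with DNPH and filtered off, and [14C]-succinic acid was counted. Inhibition was calculated relative to substrate-free and compound-free controls.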

Assay [2] concerns the target T1, human PHD2. As to the kind of experiment: Test 2: human PHD2 inhibitory activity, fluorescence polarization assay of HIF-1α peptide proline hydroxylation. It is filed as biochemical. The settings on record: for IC50: human PHD2, fluorescence polarization assay, 20-min incubation at 30° C.; for inhibition at 1 µM: test compound's concentration 1 μM, Test 2, fluorescence polarization assay, read-out: Percent inhibition (% at 1 μM). Summed up: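 Enzyme from lysate of cells expressing human PHD2 (NM_022051), 40 ng/well, added to compound and 19-residue HIF-1α peptide substrate; 20 min at 30° C., EDTA quench. Prolyl hydroxylation detected by HIF-OH antibody binding via fluorescence polarization; inhibition relative to compound-free wells.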

T1 sequence (Q9GZT9 whole entry): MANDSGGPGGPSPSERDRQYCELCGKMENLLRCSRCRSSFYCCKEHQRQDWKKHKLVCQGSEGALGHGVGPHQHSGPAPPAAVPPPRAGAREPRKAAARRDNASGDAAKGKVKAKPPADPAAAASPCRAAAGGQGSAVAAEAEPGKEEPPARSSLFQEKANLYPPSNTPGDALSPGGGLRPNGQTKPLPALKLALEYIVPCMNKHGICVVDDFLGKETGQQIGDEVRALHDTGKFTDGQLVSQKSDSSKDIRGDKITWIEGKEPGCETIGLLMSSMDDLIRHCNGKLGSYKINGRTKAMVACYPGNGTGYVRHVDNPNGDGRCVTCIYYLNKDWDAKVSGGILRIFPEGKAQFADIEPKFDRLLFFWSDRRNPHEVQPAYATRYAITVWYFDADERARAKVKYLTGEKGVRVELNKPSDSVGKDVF

As for `Cc1cccc(Oc2ccc(CN3CCC(O)=C(C(=O)NCC(=O)O)C3=O)cc2)c1` [Ex. 1-257], the inhibition at 1 µM is 95% at human PHD2 [1] and 89% on human PHD2 [2]. The same compound came in with an IC50 against human PHD2 [2] of 75 nM.
For `O=C(O)CNC(=O)C1=C(O)CCN(Cc2ccc(Oc3cccc(F)c3)cc2)C1=O` [Ex. 1-258], in that order: 94%, 90% and 63 nM.
For `O=C(O)CNC(=O)C1=C(O)CCN(Cc2ccc(Oc3ccc(F)cc3)cn2)C1=O` [Ex. 1-259], in that order: 92%, 91% and 96 nM.
On to `O=C(O)CNC(=O)C1=C(O)CCN(Cc2ccc(Sc3ccc(Cl)cc3)nc2)C1=O` [Ex. 1-261], for which the inhibition at 1 µM on human PHD2 [1] is 99%; on human PHD2 [2], 97%.
In the case of `O=C(O)CNC(=O)C1=C(O)CCN(Cc2ccc(OC3CCC3)cc2)C1=O` [Ex. 1-262], the inhibition at 1 µM at human PHD2 [1] was 88%; on human PHD2 [2], 87%.
The matching figures for `Cc1ccccc1-n1ncc(CN2CCC(O)=C(C(=O)NCC(=O)O)C2=O)c1C` [Ex. 1-263]: 81% and 83%.
Regarding `O=C(O)CNC(=O)C1=C(O)CCN(Cc2ccc(Oc3ccc(Cl)cc3)cc2)C1=O` [Ex. 1-265], the inhibition at 1 µM on human PHD2 [1] worked out at 98%. At human PHD2 [2], inhibition was half-maximal at 24 nM (IC50) and the inhibition at 1 µM worked out at 100%.
Turning to `O=C(O)CNC(=O)C1=C(O)CC2(CC2)N(Cc2ccc(C3CC3)cc2)C1=O` [Ex. 1-266], the values for the inhibition at 1 µM on human PHD2 [1] and at human PHD2 [2] were 83% and 89%, respectively.
The matching figures for `O=C(O)CNC(=O)C1=C(O)CC2(CCC2)N(Cc2ccc(OCC3CC3)cc2)C1=O` [Ex. 1-267]: 81% and 86%.
The matching figures for `Cc1c(CN2CCC(O)=C(C(=O)NCC(=O)O)C2=O)cnn1-c1ccccc1` [Ex. 1-268]: 78% and 85%.
The matching figures for `O=C(O)CNC(=O)C1=C(O)CCN(Cc2ccc3c(c2)CCC3)C1=O` [Ex. 1-269]: 85% and 89%.
With `O=C(O)CNC(=O)C1=C(O)CCN(Cc2ccc3sccc3c2)C1=O` [Ex. 1-270], the results for the inhibition at 1 µM at human PHD2 [1] and on human PHD2 [2] were 88% and 90%, respectively.
The matching figures for `O=C(O)CNC(=O)C1=C(O)CCN(Cc2ccc(OC3CCCC3)cc2)C1=O` [Ex. 1-271]: 91% and 91%.
The matching figures for `CC1(C)CC(O)=C(C(=O)NCC(=O)O)C(=O)N1Cc1ccc(OC2CCCC2)cc1` [Ex. 1-272]: 65% and 82%.
With `Cc1ccc(Oc2ccc(CN3CCC(O)=C(C(=O)NCC(=O)O)C3=O)cc2)cn1` [Ex. 1-273], the inhibition at 1 µM at human PHD2 [1] turned out to be 99%. For the same compound, on human PHD2 [2], it took 112 nM to reach half-maximal inhibition (IC50) and the inhibition at 1 µM stood at 92%.
For the compound `O=C(O)CNC(=O)C1=C(O)CCN(Cc2ccc(Oc3ccccc3F)nc2)C1=O` [Ex. 1-274], the inhibition at 1 µM stood at 92% at human PHD2 [1] and 94% at human PHD2 [2]. In addition, at human PHD2 [2], the IC50 is 108 nM.
On to `Cc1ccccc1Oc1ccc(CN2CCC(O)=C(C(=O)NCC(=O)O)C2=O)cn1` [Ex. 1-275], for which the inhibition at 1 µM at human PHD2 [1] was 85%. Moreover, on human PHD2 [2], the midpoint of inhibition, the IC50, lay at 99 nM and the inhibition at 1 µM stood at 94%.
`Cc1ccc(Oc2ccc(CN3CC(C)(C)C(O)=C(C(=O)NCC(=O)O)C3=O)cn2)cc1` [Ex. 1-276]: the values for the inhibition at 1 µM on human PHD2 [1] and on human PHD2 [2] were 93% and 92%, respectively.
The matching figures for `Cc1ccc(Oc2ccc(CN3CC4(CC4)C(O)=C(C(=O)NCC(=O)O)C3=O)cn2)cc1` [Ex. 1-277]: 108% and 97%.
Take `Cc1ccc(Oc2ccc(CN3CC4(CCC4)C(O)=C(C(=O)NCC(=O)O)C3=O)cn2)cc1` [Ex. 1-278]: the inhibition at 1 µM on human PHD2 [1] was 93%; at human PHD2 [2], 94%.
For the compound `O=C(O)CNC(=O)C1=C(O)C2(CC2)CN(Cc2ccc(OCC3CC3)cc2)C1=O` [Ex. 1-279], the inhibition at 1 µM on human PHD2 [1] came to 90%; at human PHD2 [2], 91%.
Regarding `Cc1ccc(Oc2ccc(CN3C(=O)C(C(=O)NCC(=O)O)=C(O)CC34CCC4)cn2)cc1` [Ex. 1-280], the inhibition at 1 µM at human PHD2 [1] was 109%; at human PHD2 [2] it was 98%.
For `CC1(C)CC(O)=C(C(=O)NCC(=O)O)C(=O)N1Cc1csc(-c2ccccc2)n1` [Ex. 1-281], in that order: 70% and 77%.
With `O=C(O)CNC(=O)C1=C(O)CCN(Cc2ccc(Oc3ccccc3F)cc2)C1=O` [Ex. 1-282], the inhibition at 1 µM on human PHD2 [1] was determined as 101%; at human PHD2 [2] it was 99%. At human PHD2 [2], this compound yielded an IC50 of 77 nM.
For the compound `Cc1ccccc1Oc1ccc(CN2CCC(O)=C(C(=O)NCC(=O)O)C2=O)cc1` [Ex. 1-283], on human PHD2 [1], the inhibition at 1 µM stood at 99%. On human PHD2 [2], half-maximal inhibition (IC50) was put at 63 nM and the inhibition at 1 µM stood at 97%.
For the compound `O=C(O)CNC(=O)C1=C(O)CCN(Cc2ccc(Oc3cccc(Cl)c3)nc2)C1=O` [Ex. 1-284], the inhibition at 1 µM at human PHD2 [1] was 107%. On human PHD2 [2], the IC50 was determined as 40 nM and the inhibition at 1 µM is 103%.
Regarding `O=C(O)CNC(=O)C1=C(O)CCN(Cc2ccc(Oc3cccc(C(F)(F)F)c3)nc2)C1=O` [Ex. 1-285], the inhibition at 1 µM at human PHD2 [1] was determined as 106%; on human PHD2 [2] it was 100%. Besides, the IC50 against human PHD2 [2] came out at 43 nM.
For `COc1cccc(Oc2ccc(CN3CCC(O)=C(C(=O)NCC(=O)O)C3=O)cc2)c1` [Ex. 1-286], in that order: 95%, 96% and 61 nM.
Take `O=C(O)CNC(=O)C1=C(O)CCN(Cc2ccc(Oc3cccc(OC(F)(F)F)c3)nc2)C1=O` [Ex. 1-287]: the inhibition at 1 µM on human PHD2 [1] was 94%; at human PHD2 [2] it was 104%. In addition, it took 45 nM to reach half-maximal inhibition against human PHD2 [2] (IC50).
The matching figures for `O=C(O)CNC(=O)C1=C(O)CCN(Cc2ccc(Oc3ccc(F)cn3)cc2)C1=O` [Ex. 1-288]: 90%, 91% and 146 nM.
The matching figures for `O=C(O)CNC(=O)C1=C(O)CCN(Cc2ccc(Oc3ccc(Cl)cn3)cc2)C1=O` [Ex. 1-289]: 95%, 98% and 68 nM.
Regarding `O=C(O)CNC(=O)C1=C(O)CCN(Cc2ccccc2Oc2ccc(F)cc2)C1=O` [Ex. 1-290], the values for the inhibition at 1 µM at human PHD2 [1] and at human PHD2 [2] were 63% and 86%, respectively.
`O=C(O)CNC(=O)C1=C(O)CCN(Cc2ccc(OCC(F)(F)F)cc2)C1=O` [Ex. 1-291]: the figures for the inhibition at 1 µM at human PHD2 [1] and on human PHD2 [2] were 75% and 86%, respectively.
The matching figures for `O=C(O)CNC(=O)C1=C(O)CCN(Cc2ccc(OCC(F)(F)F)c(F)c2)C1=O` [Ex. 1-292]: 83% and 86%.
For `CC1(C)CC(O)=C(C(=O)NCC(=O)O)C(=O)N1Cc1cnc(-c2ccccc2)[nH]1` [Ex. 1-293], in that order: 35% and 33%.
For `CC1(C)CC(O)=C(C(=O)NCC(=O)O)C(=O)N1Cc1nc(-c2ccccc2)cs1` [Ex. 1-294], in that order: 51% and 68%.
In the case of `CC1(C)CC(O)=C(C(=O)NCC(=O)O)C(=O)N1Cc1coc(-c2ccccc2)n1` [Ex. 1-295], the inhibition at 1 µM on human PHD2 [1] turned out to be 63%; on human PHD2 [2] it was 74%.
As to `O=C(O)CNC(=O)C1=C(O)CCN(Cc2ccc(Oc3ccc(C4CC4)cc3)nc2)C1=O` [Ex. 1-296], the inhibition at 1 µM came to 100% at human PHD2 [1] and 102% on human PHD2 [2]. Also, the IC50 on human PHD2 [2] is 15 nM.
As to `Cc1ccc(Oc2ccc(CN3CCC(O)=C(C(=O)NCC(=O)O)C3=O)cc2)nc1` [Ex. 1-297], the inhibition at 1 µM at human PHD2 [1] was 86%. Besides, at human PHD2 [2], the half-maximal inhibitory concentration (IC50) came out at 89 nM and the inhibition at 1 µM was found to be 94%.
For `O=C(O)CNC(=O)C1=C(O)CCN(Cc2ccc(Oc3ccc(C(F)(F)F)cn3)cc2)C1=O` [Ex. 1-298], in that order: 84%, 79 nM and 94%.
Take `Cn1nc(-c2ccccc2)cc1CN1C(=O)C(C(=O)NCC(=O)O)=C(O)CC1(C)C` [Ex. 1-299]: the figures for the inhibition at 1 µM on human PHD2 [1] and on human PHD2 [2] were 47% and 64%, respectively.
For `Cn1nc(CN2C(=O)C(C(=O)NCC(=O)O)=C(O)CC2(C)C)cc1-c1ccccc1` [Ex. 1-300], in that order: 30% and 43%.
For `Cc1nc(-c2ccccc2)oc1CN1C(=O)C(C(=O)NCC(=O)O)=C(O)CC1(C)C` [Ex. 1-301], in that order: 56% and 75%.
Regarding `CC1(C)CN(Cc2ccc(OCC3CC3)cc2)C(=O)C(C(=O)NCC(=O)O)=C1O` [Ex. 1-302], the results for the inhibition at 1 µM at human PHD2 [1] and at human PHD2 [2] were 61% and 79%, respectively.
For `Cc1ccc(Oc2ccc(CN3C(=O)C(C(=O)NCC(=O)O)=C(O)CC34CC4)cn2)cc1` [Ex. 1-303], in that order: 102% and 100%.
For `CC1(C)CN(Cc2ccc(OC(F)(F)F)c(Cl)c2)C(=O)C(C(=O)NCC(=O)O)=C1O` [Ex. 1-304], in that order: 35% and 72%.
For `Cc1ccc(COc2ccc(CN3CCC(O)=C(C(=O)NCC(=O)O)C3=O)cc2)cc1` [Ex. 1-305], in that order: 94% and 97%.
Turning to `O=C(O)CNC(=O)C1=C(O)CCN(Cc2ccc(OCc3cccc(Cl)c3)cc2)C1=O` [Ex. 1-306], the inhibition at 1 µM at human PHD2 [1] turned out to be 94%; at human PHD2 [2], 99%.

The inhibition is the change of the read-out against control, counted positive when it falls. Usually IC50 stands for the point on the concentration scale where inhibition reaches its midpoint. A higher IC50 goes with weaker potency in that assay.
